Each structure is given as a SMILES string. pEC50: −log10 of the molar value. Where only a bound is given, the exact number is not on record here.

For one assay, the system named is E. coli MS 200-1. The assay can be described thus: Inhibition of TMA production in whole cells (LC-MS/MS assay for choline TMA-lyase activity, d9-TMA from d9-choline). The assay is classed as cell-based. The conditions noted are these: Escherichia coli, MS2001, 3.5 h.
`CC1CCCC1N1CC=CC(O)C1` (stereo not shown) [Compound 5]: the negative-log EC50 (pEC50) is 4.82.
In the case of `CN1CCCC(O)CC1` (stereo not shown) [Compound 24], the pEC50 was 3.12.

The assay is the same for the next values; noted with them: Escherichia coli, MS2001, 3.5 h, read-out: EC50 against E. coli MS200-1.
`OC1C=CCN(CCCl)C1` (stereo not shown): the pEC50 is 3.95.
For `OC1C=CCN(C2CCCC2Cl)C1` (stereo not shown), the pEC50 was 4.28.
`O[C@@H]1C=CCCC1`: the pEC50 was 3.39.
On the same count and under the same terms, next, `O[C@H]1C=CCCC1`: 3.32; `CN1CCCC(O)CC1` (stereo not shown) [drawing 109]: 3.12.
On to `CC1CCCC1N1CC=CC(O)C1` (stereo not shown) [drawing 143], for which the pEC50 is 4.82.
Same read-out and setting: as for `CC1CCCC1N1CC=C[C@H](O)C1` (stereo partly shown) [drawing 144], the figure is 5.05; as for `CC1CCCC1N1CC=C[C@@H](O)C1` (stereo partly shown) [drawing 145], 3.79.
On the same count and under the same terms, as for `OC1C=CCCC1` (stereo not shown) [drawing 162], the figure is 3.59.

Still in this assay, the particulars now being: Escherichia coli, MS2001; Table 2; inhibition of TMA-d9 production, 1 mM choline-d9, anaerobic, 3.5 hrs, 37° C.; read-out: EC50.
`OC1C=CCN(C2CCC2)C1` (stereo not shown) [Compound 1]: the pEC50 was 3.81.
The same measure, in the same setting: as for `OC1C=CCN(C2CCCC2)C1` (stereo not shown) [Compound 2], the figure is 4.27; as for `OC1C=CCN(C2CCCCC2)C1` (stereo not shown) [Compound 3], 4.70; as for `OC1C=CCN(C2CCCCCC2)C1` (stereo not shown) [Compound 4], 4.62.
Turning to `CC1CCCCC1N1CC=CC(O)C1` (stereo not shown) [Compound 6], the pEC50 is 5.70.
Same read-out and setting: as for `O[C@@H]1C=CCN(C2CCCCC2)C1` [Compound 7], the figure is 3.97; as for `O[C@H]1C=CCN(C2CCCCC2)C1` [Compound 8], 4.85; as for `CC1CCCCC1N1CC=C[C@@H](O)C1` (stereo partly shown) [Compound 9], 4.17.
Still for that read-out and setting: as for `CC1CCCCC1N1CC=C[C@H](O)C1` (stereo partly shown) [Compound 10], the figure is 5.92.
The same measure, in the same setting: as for `CN1CCC(O)C1` (stereo not shown) [Compound 14], the figure is 2.20.
As for `CN1CCC(O)CC1` [Compound 15], the pEC50 is 2.36.
The same measure, in the same setting: next, `CN1CCCCC1CN` (stereo not shown) [Compound 17]: 3.92; `CN1CCCC1CO` (stereo not shown) [Compound 19]: 3.60; `CN1CCC[C@H]1CO` [Compound 20]: 3.55.
Regarding `CN1CCC[C@@H]1CO` [Compound 21], the pEC50 was 2.69.
Consider `OC1C=CCOC1` (stereo not shown) [Compound 22], for which the pEC50 was 4.60.
Same read-out and setting: next, `C[N+]1(C)CC=CC(O)C1` (stereo not shown) [Compound 25]: 5.00.

The same assay, now with this note: Escherichia coli, MS2001; Table 3; TMA generation of E. coli MS200-1; 100 μM compound.
Consider `COC1CCCCC1N1CC=CC(O)C1` (stereo not shown), for which the inhibition at 100 µM worked out at 40%.

Still in this assay, the particulars now being: Escherichia coli, MS2001; Table 3; TMA generation of E. coli MS200-1; 1 mM compound.
On to `COC(=O)C1CCCC1N1CC=CC(O)C1` (stereo not shown), for which the inhibition at 1000 µM amounted to 62%.

Staying with this assay, now noted: Escherichia coli, MS2001; Table 3; TMA generation of E. coli MS200-1; 3 mM compound.
`OC1C=CCN(Cc2ccccn2)C1` (stereo not shown) yielded an inhibition at 3000 µM of 96%.
In the case of `CC(C)N1CC=CC(O)C1` (stereo not shown) [drawing 136], 3000 µM produced 83% inhibition.

The same assay, now with this note: Escherichia coli, MS2001; Table 3; TMA generation, 1 mM choline-d9, anaerobic, 3.5 h, 37° C.; read-out: EC50 against E. coli MS200-1.
Take `C[N+]1(C)CC[C@@H](O)C1`: the pEC50 was 2.68.
The same measure, in the same setting: next, `CN1CCC(=O)C1`: below 1.52; `C[N+]1(C)CCCC(O)C1` (stereo not shown): below 1.52.
Take `C[N+]1(C)CC=C[C@H](O)C1`: the pEC50 is 5.05.
Same read-out and setting: next, `C[N+]1(C)CC=C[C@@H](O)C1`: 4.66; `O[C@H]1C=CCN(CC2CC2)C1`: 3.50; `O[C@@H]1C=CCN(CC2CC2)C1`: 3.82.
As to `COc1ccc(CN2CC=CC(O)C2)cc1` (stereo not shown), the pEC50 was 3.52.
For `COc1ccc(CN2CC=C[C@H](O)C2)cc1`, the negative-log EC50 (pEC50) was 3.42.
On the same count and under the same terms, next, `COc1ccc(CN2CC=C[C@@H](O)C2)cc1`: 3.85.
Same read-out and setting: next, `OC1C=CCN(Cc2ccco2)C1` (stereo not shown): 3.71; `OC1C=CCN(Cc2cccs2)C1` (stereo not shown): 3.65.
Consider `O[C@H]1C=CCN(Cc2cccs2)C1`, for which the pEC50 was 3.72.
Consider `O[C@@H]1C=CCN(Cc2cccs2)C1`, for which the negative-log EC50 (pEC50) was 3.67.
Turning to `OC1C=CCN(Cc2ccoc2)C1` (stereo not shown), the pEC50 was 3.59.
The same measure, in the same setting: as for `OC1C=CCN(Cc2ccsc2)C1` (stereo not shown), the figure is 3.59.
Same read-out and setting: as for `OC1C=CCN(CCc2ccccc2)C1` (stereo not shown), the figure is 3.53; as for `O[C@H]1C=CCN(C2CCC2)C1`, 3.94; as for `O[C@@H]1C=CCN(C2CCC2)C1`, 3.71.
As for `O[C@H]1C=CCN(C2CCCC2)C1`, the pEC50 is 4.39.
Same read-out and setting: next, `O[C@@H]1C=CCN(C2CCCC2)C1`: 4.21; `CC1CCC(N2CC=CC(O)C2)C1` (stereo not shown): 4.31; `OC1C=CCN(C2CCSC2)C1` (stereo not shown): 3.76.
`OC1C=CCN(C2CCCCC2F)C1` (stereo not shown): the pEC50 is 4.92.
Same read-out and setting: next, `CC1CCCC(N2CC=CC(O)C2)C1` (stereo not shown): 4.77; `CC1CCC(N2CC=CC(O)C2)CC1` (stereo not shown): 4.38.
As for `CC(=O)OC1C=CCN(C)C1` (stereo not shown), the pEC50 is 2.75.
Same read-out and setting: next, `CC1=CCCCC1O` (stereo not shown): 2.42; `CC1=CC(O)CCC1` (stereo not shown): 1.85; `O[C@H]1C=CCOC1`: 3.95.
The same measure, in the same setting: next, `O[C@@H]1C=CCOC1`: 4.08.
Take `CN1CCCCC1CO` (stereo not shown): the pEC50 is 3.92.
Still for that read-out and setting: next, `CN1CCC(O)C1` (stereo not shown) [drawing 102]: 2.20.
The same measure, in the same setting: as for `CN1CCC(O)CC1` [drawing 108], the figure is 2.35; as for `C[N+]1(C)CC=CC(O)C1` (stereo not shown) [drawing 114], 5.10.
Regarding `CC1=CC(O)CN(C)C1` (stereo not shown) [drawing 117], the pEC50 was 3.03.
With `CCCN1CC=CC(O)C1` (stereo not shown) [drawing 118], the negative-log EC50 (pEC50) was 3.71.
Still for that read-out and setting: as for `OC1C=CCN(CC2CC2)C1` (stereo not shown) [drawing 120], the figure is 3.60; as for `OC1C=CCN(CC2CCCCC2)C1` (stereo not shown) [drawing 123], 4.04; as for `OC1C=CCN(Cc2ccccc2)C1` (stereo not shown) [drawing 124], 3.44.
On the same count and under the same terms, next, `OC1C=CCN(C2CCC2)C1` (stereo not shown) [drawing 137]: 3.72.
As to `OC1C=CCN(C2CCCC2)C1` (stereo not shown) [drawing 140], the pEC50 was 4.38.
The same measure, in the same setting: next, `OC1C=CCN(C2CCCCC2)C1` (stereo not shown) [drawing 150]: 4.66; `O[C@H]1C=CCN(C2CCCCC2)C1` [drawing 151]: 4.85; `O[C@@H]1C=CCN(C2CCCCC2)C1` [drawing 152]: 3.97.
As for `CC1CCCCC1N1CC=CC(O)C1` (stereo not shown) [drawing 153], the pEC50 was 5.70.
As for `CC1CCCCC1N1CC=C[C@H](O)C1` (stereo partly shown) [drawing 154], the pEC50 is 4.92.
Still for that read-out and setting: next, `CC1CCCCC1N1CC=C[C@@H](O)C1` (stereo partly shown) [drawing 155]: 4.17.
On the same count and under the same terms, as for `OC1C=CCN(C2CCCCCC2)C1` (stereo not shown) [drawing 160], the figure is 4.62; as for `OC1C=CCOC1` (stereo not shown) [drawing 167], 4.10; as for `CN1CCCC1CO` (stereo not shown) [drawing 170], 3.53.
`CN1CCC[C@H]1CO` [drawing 171]: the negative logarithm of the EC50 (pEC50) was 3.73.
On the same count and under the same terms, as for `CN1CCC[C@@H]1CO` [drawing 172], the figure is 2.74.

The assay is the same for the next values; noted with them: Table 2; inhibition of TMA-d9 production, 1 mM choline-d9, anaerobic, 3.5 hrs, 37° C.; read-out: EC50.
For the compound `CN1CC=CC(O)C1` (stereo not shown) [Compound 11], the pEC50 is 5.00.
On the same count and under the same terms, next, `CN1CC=C[C@H](O)C1` [Compound 12]: 5.00; `CN1CC=C[C@@H](O)C1` [Compound 13]: 4.82; `CN1CCCC(=O)C1` [Compound 16]: 2.02.

The same assay, now with this note: Table 3; TMA generation, 1 mM choline-d9, anaerobic, 3.5 h, 37° C.; read-out: EC50 against E. coli MS200-1.
As for `[2H]C1(O)C=CCN(C)C1` (stereo not shown), the pEC50 was 4.52.
As to `CN1CCCC(=O)C1` [drawing 107], the pEC50 is 1.57.
With `CN1CC=CC(O)C1` (stereo not shown) [drawing 110], the pEC50 is 5.00.
Same read-out and setting: next, `CN1CC=C[C@H](O)C1` [drawing 112]: 5.00; `CN1CC=C[C@@H](O)C1` [drawing 113]: 4.51.

As a reminder, the pEC50 is the negative decadic logarithm of the EC50, by convention in mol/L. One may read the inhibition as how much of the control response was suppressed. Low values mean little suppression, high ones strong suppression.
